Source: patent publication US20240182475A1 (Université de Lausanne, priority 2021, published 2024)

Key:
MOVAS cells = test: MOVAS cell calcification assay (Alizarin red); assay type: cell-based, mouse; details: for Mineralization (Alizarin red): 50 uM
Summary of the method: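 MOVAS mouse vascular smooth muscle cells were calcified with CPP (equivalent to 50 μg Ca/mL) for 24 h at 37 °C in DMEM/10% FBS with compounds in 0.1% DMSO. Deposits were stained with Alizarin Red (pH 4.2), dissolved in cetylpyridinium chloride and read at 570 and 630 nm. No-CPP background was subtracted.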

[1] = system: primary human chondrocytes; test: Primary human chondrocyte calcification (Alizarin red); assay type: cell-based; details: secondary CPP 24 h, 50 uM
Protocol: (a) WT and Cse-deficient chondrocytes were incubated with a CSE activator (SU004, 50 μM) previously identified by high-through put screen, or with the equivalent volume of DMSO (0.1%) for 24 hours in calcification medium. STS 25 mM was used as a positive control for calcification inhibition. Calcium-containing crystals were stained with Alizarin red and quantified. (b) Cytotoxicity was assessed by LDH measurement and expressed as % over 100% cytotoxicity. (c) IL-6 secretion was measured by ELISA in supernatant of WT chondrocytes incubated with SU004 50 μM or STS 25 mM for 24 hours in calcification medium. (d) Primary human chondrocytes from 3 OA patients (P1, P2, P3) were incubated with SU004 50 μM, or with the equivalent volume of DMSO (0.1%) for 24 hours in calcification medium. Calcium-containing crystals were stained with Alizarin red and quantified. (e) Cytotoxicity was assessed by LDH measurement and expressed as % over 100% cytotoxicity. (f) IL-6 secretion was measured by ELISA in supernatant of human chondrocytes incubated for 24 hours with SU004 50 μM in calcification medium. *p<0.05, ** p<0.01, ****p<0.0001.
1. Alizarin red staining of primary human chondrocytes stimulated with secondary CPP for 24 h in DMEM+10% FBS and treated or not with 50 uM of compounds.
Chondrocytes were isolated from cartilage pieces incubated overnight in the digestion enzyme Liberase™ (Roche). […]

recombinant human CSE = recombinant human CSE (Homo sapiens, UniProt P32929); test: CSE activity (AzMC probe assay), H2S production by recombinant human CSE; assay type: biochemical; details: for CSE production of H2S (AzMC fluorescence, kinetic 2 h): 50 uM, 2 μg rCSE, 10 mM L-cysteine, 5 uM PLP, Tris-HCl pH 8, vs vehicle
Chain of recombinant human CSE (P32929 whole entry): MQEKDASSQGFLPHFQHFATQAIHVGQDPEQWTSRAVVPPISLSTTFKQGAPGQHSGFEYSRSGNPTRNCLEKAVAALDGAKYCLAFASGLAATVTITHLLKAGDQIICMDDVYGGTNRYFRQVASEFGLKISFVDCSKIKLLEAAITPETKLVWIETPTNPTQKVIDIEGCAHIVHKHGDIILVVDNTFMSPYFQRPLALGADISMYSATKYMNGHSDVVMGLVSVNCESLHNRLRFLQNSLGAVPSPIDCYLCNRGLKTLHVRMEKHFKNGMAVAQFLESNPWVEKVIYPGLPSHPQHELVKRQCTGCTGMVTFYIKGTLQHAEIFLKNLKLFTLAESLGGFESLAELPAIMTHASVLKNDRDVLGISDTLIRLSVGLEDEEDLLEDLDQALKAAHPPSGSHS
Protocol: The activity of recombinant human CSE (rCSE) was tested in the presence of C5, compound 8 (50 uM), Z20 compound 13 (50 uM) or vehicle (DMSO). Briefly, compounds were added in reaction buffer (50 mM Tris-HCl, pH 8) containing 2 μg of rCSE, 10 mM CSE substrate L-cysteine, 5 uM pyridoxal 5′-phosphate (PLP). After addition of 10 μM of the H2S sensitive fluorescent probe 7-azido-4-methylcoumarin (AzMC) in a total volume of 100 μl, fluorescence was immediately measured in kinetic mode for 2 h at 37° C. with SpectraMax M5 reader, with excitation and emission wavelengths of 365 nm and 450 nm, respectively. Statistical analysis was determined using simple linear regression with p<0.0001 for C5 vs. vehicle and p<0.0002 for Z20 vs. vehicle.
Recombinant human CSE (1 μg/well) was incubated with various concentrations of compounds (all in final 0.1% DMSO), or with 0.1% DMSO as a control, in 10 mM sodium phosphate buffer pH 8.2. Next, 10 mM L-cysteine and 1 mM PLP and 10 μM of the probe AzMC were then added to reach 100 μL total volume. Fluorescence was measured for 3 h at 37° C. with excitation and emission wavelengths of 365 nm and 450 nm, respectively, in a 96-well half area black plate with transparent bottom.
Dose-response curve of each compound was performed, using triplicate wells for each tested doses. The background (10 mM sodium phosphate buffer with L-cysteine, PLP and AzMC) was subtracted from all values. Each mean value was converted to percent activity (0% defined as the smallest mean in each data set, 100% defined as the highest mean in each data set). The data were normalized using the four parameter logistic model (4PL) equation to calculate EC50 using GraphPad Prism.

Row | CSE production of H2S (AzMC fluorescence, kinetic 2 h) (recombinant human CSE) | EC50 (recombinant human CSE; EC50 calculated by the four-parameter logistic model) [nM] | Structure (SMILES) | inhibition at 2 µM (MOVAS cells; Mus musculus, MOVAS, at 2 uM, read-out: Calcification assay Max calcification inhibition (%) at the indicated dose of compound) [%] | Mineralization (Alizarin red) (MOVAS cells; sCPP 24 h) | Mineralization (Alizarin red) [1] | Mineralization (Alizarin red absorbance 570-630 nm) (MOVAS cells; sCPP 24 h, different concentrations)
1 | augments CSE production of H2S | 68.6 | Cn1ncc2c(Nc3cnn(CC4CCCO4)c3)ncnc21 (stereo not drawn) [Compound 8, N-{1-methyl-1H-pyrazolo[3,4-d]pyrimidin-4-yl}-1-[(oxolan-2-yl)methyl]-1H-pyrazol-4-amine] | 38 | inhibit murine vascular smooth muscle cells (MOVAS cells) mineralization | inhibit primary human chondrocyte mineralization | 
2 | augments CSE production of H2S |  | CCn1cnc2c(Nc3cnn(CC4CCCO4)c3)ncnc21 (stereo not drawn) [Compound 13] |  | inhibits MOVAS cells mineralization | inhibit primary human chondrocyte mineralization | Dose-dependent effect
